One experiment has as its system Notch. The experiment in a line: Single-cell RNA-seq of leukemic cells of ETP T-ALL patients before and after GSI treatment. The class given is in vivo, human. Conditions: scRNA-seq. An excerpt: Banked blood or bone marrow samples from patients with relapsed/refractory ETP T-ALL (see Table 1) were used in this study. All patients provided informed consent and were enrolled on a phase I clinical trial (NCT01363817) with the γ-secretase inhibitor (GSI) BMS-906024, a Notch inhibitor. Ayala Pharmaceuticals is investigating AL101 (BMS-906024) in a Phase II open-label, single-arm, multicenter study in ACC patients harboring known NOTCH1-4 activating mutations (ACCURACY; NCT03691207). Normal donor blood was obtained from Research Blood Components, LLC; and mononuclear cells (PBMCs) were isolated using Ficoll-Paque PLUS from GE Healthcare.
Full-length single-cell RNA-seq libraries were prepared using the SMART-seq2 protocol (Picelli et al., 2014 Nat Protoc, 9(1):171-181). cDNA was fragmented using Nextera XT (Illumina) and amplified with indexed Nextera PCR primers. Products were quantified using a Bioanalyzer High Sensitivity DNA Kit. Pooled libraries were sequenced on a NextSeq 500 (Illumina) with an average sequencing depth of 0.5-1 million reads per cell.
Processing and quality filtering of scRNA-seq data was carried out using trimmomatic^21, STAR (Dobin et al., 2013 Bioinformatics, 29(1):15-21), HTSeq (Anders et al., 2015 Bioinformatics, 31(2):166-169) and RSEM (Li et al., 2011 BMC Bioinformatics, 12:323). Clustering of single-cell profiles and marker gene analyses were performed using PAGODA2 (Fan et al., 2016 Nature methods, 13(3):241-244), monocole2 (Trapnell et al., 2014 Nat Biotechnol, 32(4):381-386), SEURAT (Butler et al., 2018 Nature Biotechnology, 36(5):411-420) and RNA velocity (La et al., 2018 Nature, 560(7719):494-498). Single nucleotide variant and copy number analyses were performed with mutect2 (Cibulskis et al., 2013 Nat Biotechnol, 31(3):213-219), InferCNV (Patel et al., 2014 Science, 344(6190):1396-1401; Tirosh et al., 2016 Science, 352(6282):189-196) and CONICSmat (Muller et al., 2018 Bioinformatics, 34(18):3217-3219). Single-cell profiles were compared with cell types from ImmGen (Heng et al., 2008 Nat Immunol, 9[…] a log-likelihood model. Transcriptional regulon and signaling pathway activities were analyzed with SCENIC (Fernandez et al., 2016 Cell Syst, 3(5):491-495 e495) and PROGENy (Schubert et al., 2018 Nat Commun, 9(1):20). Further details of the analysis are set forth below.
In order to fully define ETP T-ALL heterogeneity on the single-cell level, a full-length transcriptome analysis of 5,077 malignant and normal immune cells (T-cells, B-cells and monocytes) was performed from bone marrow or blood from four healthy donors and five patients with relapsed/refractory ETP T-ALL, diagnosed by immunophenotyping for ETP T-ALL, all with NOTCH1 gain-of-function mutations. These patients were treated with the γ-secretase inhibitor (GSI), and pre- and post-treatment samples were processed for this study.
The effects of Notch inhibition were next explored. […] It was hypothesized that persistence of a stem-like population might be the reason for the limited effects of Notch inhibitors in patients with relapsed/refractory Notch-mutant T-ALL.

For the next experiment, the system named is DND-41 T-ALL cell line. The experiment in a line: Cell proliferation assay (CellTiter-Glo cell viability), DND-41. The class given is cell-based. The settings on record: DND41, 168 h, 7 days, read-out: IC50, cell viability normalized to DMSO. The protocol:
(§1) FIG. 16A-16E is a series of graphs showing inhibition of T-ALL proliferation by PI3K inhibitor is increased when combined with GSI. DND-41, HPB-ALL, KOPT-K1, Jurkat and Loucy T-ALL cell lines were treated with Buparlisib, GSI, Buparlisib with 1 μM of GSI or DMSO for 7 days. Dose response curves of cell viability normalized to DMSO are shown (datapoints are derived from 3 replicates each, error bars show standard deviation).
(§2) The leukemia cell lines (all verified by STR profiling) DND-41, KOPT-K1, HPB-ALL, Loucy, MOLT-4, NALM-6, SEM, KG-1 and HL-60 were obtained from ATCC or DSMZ, and were cultured in RPMI 1640 with 10% of heat-inactivated fetal bovine serum, 1% penicillin/streptomycin (Invitrogen).
(§3) Buparlisib (Selleckchem) and GSI (Santa Cruz Biotechnology, Inc) were prepared in DMSO (Sigma-Aldrich). Cell proliferation assays were measured by CellTiter-Glo Luminescent Cell viability assay (Promega), after a period of seven days. IC50 values were calculated by fitting the dose-response curves to a three-parameter sigmoid dose-response model using GraphPad. Error bars reflect standard deviation.

The next experiment has as its system Jurkat T-ALL cell line. The experiment in a line: Cell proliferation assay (CellTiter-Glo cell viability), Jurkat. The class given is cell-based. Conditions: Homo sapiens, 168 h, 7 days, read-out: IC50, cell viability normalized to DMSO. The protocol:
as §1, §3
A general note: In ATP-based viability assays light output follows the ATP content of the culture.

The next experiment deals with HPB-ALL T-ALL cell line. The experiment in a line: Cell proliferation assay (CellTiter-Glo cell viability), HPB-ALL. The class given is cell-based. The settings on record: Homo sapiens, HPBALL, 168 h, 7 days, read-out: IC50, cell viability normalized to DMSO. The method, then: as §1, §2, §3
A further experiment concerns KOPT-K1 T-ALL cell line. The experiment in a line: Cell proliferation assay (CellTiter-Glo cell viability), KOPT-K1. The class given is cell-based. The settings on record: Homo sapiens, KOPTK1, 168 h, 7 days, read-out: IC50, cell viability normalized to DMSO. The method, then: as §1, §2, §3
Another experiment relates to Loucy T-ALL cell line. The experiment in a line: Cell proliferation assay (CellTiter-Glo cell viability), Loucy. The class given is cell-based. Conditions: 168 h, 7 days, read-out: IC50, cell viability normalized to DMSO. The method, then:
as §1, §2, §3

The mark [1] stands for this setting: ETP T-ALL patients treated with GSI.

The IC50 is the concentration that gives 50% inhibition.

Read-outs that look alike come from different tables or passages of the source.

As to `CN1C(=O)[C@@H](NC(=O)[C@H](CCC(F)(F)F)[C@H](CCC(F)(F)F)C(N)=O)N=C(c2ccccc2)c2ccccc21` [GSI, BMS-906024], in the experiment with Notch (setting [1]), the “Cell cycle of leukemic cells upon treatment” value was “Cell cycle arrest” and the “Notch target gene expression upon treatment” value is reported as “downregulation of Notch target genes”. For the same compound, in the experiment on Notch (ETP T-ALL patients), the “Cycling stem-like root cells (root2) after treatment” value is on record as “abolishes the cycling stem-like root cells (root2)” and the “Non-cycling root cells (root1) after treatment” value was “persist in the face of treatment”. The “Cells with high PI3K signaling activity compared to untreated cells” value with Notch (ETP T-ALL patients, PROGENy) is on record as “enrichment of cells with high PI3K signaling activity”.
For `Nc1cc(C(F)(F)F)c(-c2cc(N3CCOCC3)nc(N3CCOCC3)n2)cn1` [Buparlisib], the IC50 in the experiment with DND-41 T-ALL cell line (DND-41, Buparlisib alone) was determined as 1010 nM; in the experiment on DND-41 T-ALL cell line (DND-41, Buparlisib with 1 μM of GSI), 132 nM; with Jurkat T-ALL cell line (Buparlisib alone) it was 720 nM; with Jurkat T-ALL cell line (Buparlisib with 1 μM of GSI), 423 nM; with HPB-ALL T-ALL cell line (Buparlisib alone), 340 nM; in the experiment with HPB-ALL T-ALL cell line (Buparlisib with 1 μM of GSI) it was 0.00723 nM. In addition, the IC50 with KOPT-K1 T-ALL cell line (KOPT-K1, Buparlisib alone) amounted to 1160 nM; in the experiment on KOPT-K1 T-ALL cell line (KOPT-K1, Buparlisib with 1 μM of GSI), 250 nM; with Loucy T-ALL cell line (Buparlisib alone), 650 nM; in the experiment with Loucy T-ALL cell line (Buparlisib with 1 μM of GSI), 710 nM.

Source of the values: patent US12559559B2, “Targeting Galectin-9 as a therapeutic strategy for T-cell exhaustion in T-cell acute lymphoblastic leukemia” (DANA-FARBER CANCER INSTITUTE, INC., priority 2019, dated 2026).
